Assay results as given in patent US6197752A, “Glycomimetics as selectin antagonists and pharmaceuticals having antiinflammatory activity prepared therefrom” (Glycorex AB, priority 1995, dated 2001).
Where two headings read alike, the source gives them in different places.

Key:
[1] = tested on: P-selectin-dependent lung injuries; conditions: animal experiments; Mulligan et al. 1993; cited from earlier work
[2] = tested on: myocardial reperfusion injuries; conditions: animal experiments; Buerke et al. 1994; cited from earlier work
P-Selectin = biological target: T1, P-Selectin (Homo sapiens, UniProt P16109); conditions: WO 95/04526, WO 94/24145, cited from earlier work
T1 sequence (P16109 42-830): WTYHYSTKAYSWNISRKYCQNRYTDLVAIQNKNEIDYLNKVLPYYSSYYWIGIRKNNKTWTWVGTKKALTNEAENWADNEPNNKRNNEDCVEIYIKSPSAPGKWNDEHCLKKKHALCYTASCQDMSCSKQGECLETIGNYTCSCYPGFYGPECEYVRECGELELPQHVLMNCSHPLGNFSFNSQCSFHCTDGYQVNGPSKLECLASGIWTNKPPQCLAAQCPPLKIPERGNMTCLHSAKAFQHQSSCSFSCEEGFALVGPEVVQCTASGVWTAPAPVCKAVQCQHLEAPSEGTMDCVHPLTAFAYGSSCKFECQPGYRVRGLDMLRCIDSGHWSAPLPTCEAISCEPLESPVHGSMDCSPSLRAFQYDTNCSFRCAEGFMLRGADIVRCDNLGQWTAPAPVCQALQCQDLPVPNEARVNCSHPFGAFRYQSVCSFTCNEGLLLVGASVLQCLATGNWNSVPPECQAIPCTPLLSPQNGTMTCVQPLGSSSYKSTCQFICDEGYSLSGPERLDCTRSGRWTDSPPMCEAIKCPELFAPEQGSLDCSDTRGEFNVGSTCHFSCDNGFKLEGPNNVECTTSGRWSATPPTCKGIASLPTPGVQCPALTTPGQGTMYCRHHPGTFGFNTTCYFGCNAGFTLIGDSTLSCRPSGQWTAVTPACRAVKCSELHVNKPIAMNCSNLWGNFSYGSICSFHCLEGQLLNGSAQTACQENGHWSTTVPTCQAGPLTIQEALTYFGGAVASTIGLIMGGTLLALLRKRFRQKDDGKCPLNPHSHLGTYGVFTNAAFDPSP

5-lipoxygenase = conditions: WO 95/04526; WO 94/24145; cited from earlier work
[3] = WO 95/04526; WO 94/24145; cited from earlier work
selectins = conditions: cited from earlier work
[4] = tested on: leukocyte adhesion on the endothelium; experiment: LPS-induced leukocyte adhesion in vivo, intravital microscopy in the mesenterium of the rat; conditions: SPRD (m)
Source text: In inflammatory processes and other states which activate the cytokines, a critical part is played by the destruction of tissue by means of leukocytes which migrate in or which block the microcirculation. The first phase, which is critical for the subsequent course of the disease, is the activation of leukocytes within the blood stream, especially in the pre- and post-capillary area. […] All subsequent leukocyte effects, i.e. active migration through the vessel wall and subsequent oriented migration in the tissue, are secondary reactions (Harlan, J. M., Leukocyte-endothelial interaction, Blood 65, 513-525,1985). […]
The induced adhesion of leukocytes is quantified by an investigation technique involving intravital microscopy in the mesenterium of the rat (Atherton A. and Born G.V.R., Quantitative investigations of the adhesiveness of circulating polymorphonuclear leukocytes to blood vessel walls. J. Physiol. 222, 447-474,1972; Seiffge, D. Methoden zur Untersuchung der Rezeptor-vermittelten Interaktion zwischen Leukozyten und Endotheizellen im Entzundungsgeschehen [Methods of investigating receptor-mediated interaction between leukocytes and endothelial cells in the case of inflammation] in: Ersatz- und Erganzungsmethoden zu Tierversuchen in der biomedizinischen Forschung, Schoffl, H. et al., (eds.) Springer, 1995 (in press)). […]

CC(=O)NC1C(O)CC(OC2C(O)C(CO)OC(OC3C(CO)OC(O)C(NC(C)=O)C3OC3OC(C)C(O)C(O)C3O)C2O)(C(=O)O)OC1C(O)C(O)CO (stereo not shown) [SLeX]
use in P-selectin-dependent lung injuries [1]: successfully used | use in myocardial reperfusion injuries [2]: successfully used

C=C(CO[C@H]1CC[C@]2(C)[C@H]3C(=O)C=C4[C@@H]5C[C@@](C)(C(=O)O)CC[C@]5(C)CC[C@@]4(C)[C@]3(C)CC[C@H]2C1(C)C)C[C@@H]1O[C@@H](C)[C@@H](O)[C@@H](O)[C@@H]1O [Compound 4a]
P-selectin inhibition (in words) (P-Selectin): P-selectin inhibition | IC50 (P-Selectin; read-out: IC50 for binding to P-selectin): 750 µM | inhibition of 5-lipoxygenase (5-lipoxygenase): inhibition of 5-lipoxygenase | antimetastatic action [3]: antimetastatic action

CC1OC(CCCCC2OC(CO)C(O)C(CCC(=O)O)C2O)C(O)C(O)C1O (stereo not shown) [Compound 3]
IC50 (selectins; Wong et al., J. Am. Chem. Soc. 1995): 10000 to 20000 µM

C[C@@H]1O[C@@H](CCCOC(=O)N2CCC(C(=O)O)CC2)[C@@H](O)[C@H](O)[C@@H]1O [Compound 12c]
inhibition of leukocyte adhesion ([4]; 3 mg/kg, 1 day i.v.): 58% | inhibition of leukocyte adhesion ([4]; 20 mg/kg, 1 day p.o.): 29%

CC1OC(CC(=O)C2CCCC2C(=O)NC(Cc2ccccc2)C(=O)O)C(O)C(O)C1O (stereo not shown) [Compound 2]
IC50 (selectins; glycopeptide analogs (WO 95/04751), region of up to): ≤ 1000 µM
